According to patent publication US10308615B2, “Heterocyclic compounds as inhibitors of Vanin-1 enzyme” (Pfizer Inc., priority 2015, dated 2019):

Legend:
human vanin-1 [1] = molecular target: T1, human vanin-1 (Homo sapiens (Human), UniProt O95497); assay: Human Vanin-1 Enzyme Assay 1; type: biochemical; details: 25 pM human vanin-1, 50 uM pantetheine 7-amino-4-trifluoromethylcoumarin, 30 min preincubation, 60 min
Procedure: Human Vanin-1 Enzyme Assay 1.
(§1) The in vitro assay measures enzymatic cleavage of the fluorescently-labeled vanin substrate, pantetheine 7-amino-4-trifluoromethylcoumarin, by human vanin-1.
(§2) The vanin-1 protein was prepared in-house from a construct expressing the extracellular domain of human vanin-1 (GenBank ID NM_004666) preceded N-terminally by the honey bee melittin signal peptide, a GSG linker sequence, a His6X tag and a FLAG tag. The secreted, soluble enzyme was purified from the conditioned medium from a CHO cell line stably expressing the resulting protein. Enzyme purification was performed through sequential Ni NTA and size-exclusion chromatography steps.
The test inhibitors were solubilized in DMSO to a stock concentration of 30 mM. On the day of the assay, dose response plates were prepared by diluting the inhibitors in DMSO at compound concentration 200-fold the final in-assay concentration. Intermediate concentrations were prepared by diluting in DMSO in a four-fold series for a total of 11 data points.
To prepare a working solution of human vanin-1, the enzyme was diluted to 33.3 pM in the assay buffer consisting of 50 mM Tris-HCl pH=8.0, 50 mM KCl, 0.005% Brij-35 and […] cysteamine. To begin the assay 100 nL was transferred from the compound plate to the assay plate. Next, 15 μL of the vanin-1 working solution were transferred to the assay plate. The inhibitor and enzyme were incubated at room temperature for 30 minutes. The enzyme reaction was then initiated by the addition of 5 μL of 200 μM pantetheine 7-amino-4-trifluoromethylcoumarin prepared in assay buffer. The final concentrations in the assay were 25 pM human vanin-1 and 50 uM substrate. The final concentration of DMSO was 0.5%. The assay plates were incubated for 60 minutes and before they were read on a Perkin Elmer EnVision Model 2103 using a 405 nm excitation wavelength and a 510 nm emission wavelength for detection.

human vanin-1 [2] = molecular target: T1, human vanin-1; assay: Human Vanin-1 Enzyme Assay 3; type: biochemical; details: 2 nM human vanin-1, 10 uM substrate, 15 min
Procedure: Human Vanin-1 Enzyme Assay 3.
as §1, §2
On the day of the assay, dose response plates were prepared by diluting the inhibitors in DMSO at compound concentration 100-fold the final in-assay concentration. Concentration series were prepared by serially diluting in DMSO in a two-fold series for a total of 11 data points. Intermediate compound plates containing compound in 10% DMSO were then created by diluting the compounds 10-fold in assay buffer consisting of 50 mM Tris-HCl pH=8.0, 50 mM KCl, 0.005% Brij-35 and 1.5 mM cysteamine. To begin the assay 3 μL were transferred from the intermediate compound plate to the assay plate.
A working solution of human vanin-1 was prepared by diluting the enzyme stock to 2.5 nM in assay buffer. Next, 24 μL of the vanin-1 working solution were transferred to the assay plate. The enzyme reaction was then initiated by the addition of 3 μL of 100 μM pantetheine 7-amino-4-trifluoromethylcoumarin prepared in 5 uM acetic acid. The final concentrations in the assay were 2 nM human vanin-1 and 10 uM substrate. The final concentration of DMSO was 1%. The assay plates were incubated at room temperature for 15 minutes and before they were read on a Tecan Safire using a 405 nm excitation wavelength and a 505 nm emission wavelength for detection.

T1 sequence (O95497 22-491): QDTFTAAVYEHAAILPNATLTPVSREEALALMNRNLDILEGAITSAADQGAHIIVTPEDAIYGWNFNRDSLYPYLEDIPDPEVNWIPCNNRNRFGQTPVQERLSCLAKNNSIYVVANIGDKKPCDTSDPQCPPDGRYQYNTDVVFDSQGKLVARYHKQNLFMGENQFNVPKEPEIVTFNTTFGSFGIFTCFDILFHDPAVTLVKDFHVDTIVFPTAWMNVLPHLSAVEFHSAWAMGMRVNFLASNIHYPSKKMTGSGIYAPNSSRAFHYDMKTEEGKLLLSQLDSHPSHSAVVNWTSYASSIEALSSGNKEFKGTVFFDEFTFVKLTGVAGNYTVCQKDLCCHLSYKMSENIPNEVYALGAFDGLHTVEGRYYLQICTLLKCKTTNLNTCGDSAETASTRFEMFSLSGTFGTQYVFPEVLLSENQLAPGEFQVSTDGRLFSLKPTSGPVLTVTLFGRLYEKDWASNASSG

Row | IC50 (human vanin-1 [1]) | IC50 (human vanin-1 [2]) | SMILES
1 | 93.3 nM | 43.7 nM | O=C(c1cnc(NCc2cccnc2)nc1)c1ccc(F)c(F)c1 [Example 22, (3,4-difluorophenyl){2-[(pyridin-3-ylmethyl)amino]pyrimidin-5-yl}methanone]
2 | 4170 nM | 63.2 nM | N#Cc1cccc(CNc2ncc(C(=O)c3cccc(Cl)c3)cn2)c1 [Example 26, 3-({[5-(3-chlorobenzoyl)pyrimidin-2-yl]amino}methyl) benzonitrile]
3 | 242 nM | 20.5 nM | O=C(c1cnc(NCc2ccccc2)nc1)c1cccc(C(F)(F)F)c1 [Example 35, [2-(benzylamino)pyrimidin-5-yl][3-(trifluoromethyl)phenyl]methanone]
4 | 467 nM | 660 nM | Cc1cccc(C(=O)c2cnc(NCc3ccncc3)nc2)c1 [Example 39, (3-methylphenyl){2-[(pyridin-4-ylmethyl)amino]pyrimidin-5-yl}methanone]
5 | 4270 nM | 808 nM | COc1ccc(CNc2ncc(C(=O)c3ccc(F)c(F)c3)cn2)cc1 [Example 41, (3,4-difluorophenyl){2-[(4-methoxybenzyl)amino]pyrimidin-5-yl}methanone]
6 | 1060 nM | 709 nM | Cc1cccc(C(=O)c2cnc(NCc3ccc(C#N)cc3)nc2)c1 [Example 42, 4-({[5-(3-methylbenzoyl)pyrimidin-2-yl]amino}methyl) benzonitrile]
7 | 2220 nM | 490 nM | NC(=O)c1ccc(CNc2ncc(C(=O)c3ccc(F)c(F)c3)cn2)cc1 [Example 43, 4-({[5-(3,4-difluorobenzoyl)pyrimidin-2-yl]amino}methyl) benzamide]
8 | 508 nM | 105 nM | CC(C)(Nc1ncc(C(=O)c2ccc(F)c(F)c2)cn1)c1ccccc1 [Example 44, (3,4-difluorophenyl){2-[(2-phenylpropan-2-yl)amino]pyrimidin-5-yl}methanone]
9 | > 20000 nM | > 213 nM | O=C(c1cnc(OCc2ccc(F)cc2)nc1)c1cccc(C(F)(F)F)c1 [Example 46, {2-[(4-fluorobenzyl)oxy]pyrimidin-5-yl}[3-(trifluoromethyl)phenyl]methanone]
10 | > 5130 nM | > 729 nM | O=C(c1cnc(OCc2ccc(Cl)cc2)nc1)c1cccc(C(F)(F)F)c1 [Example 47, {2-[(4-chlorobenzyl)oxy]pyrimidin-5-yl}[3-(trifluoromethyl)phenyl]methanone]
11 | – | < 16.5 nM | COc1ccc(CNc2ncc(C(=O)c3ccc(C(F)(F)F)cc3)cn2)cc1 [Example 55, {2-[(4-methoxybenzyl)amino]pyrimidin-5-yl}[4-(trifluoromethyl)phenyl]methanone]
12 | – | 36.2 nM | O=C(c1cnc(NCc2ccncc2)nc1)c1cccc(C(F)(F)F)c1 [Example 56, {2-[(pyridin-4-ylmethyl)amino]pyrimidin-5-yl}[3-(trifluoromethyl)phenyl]methanone]
13 | – | 889 nM | O=C(c1ccc(Cl)cc1)c1cnc(NCc2ccc(Cl)cc2)nc1 [Example 57, {2-[(4-chlorobenzyl)amino]pyrimidin-5-yl}(4-chlorophenyl) methanone]
14 | – | 133 nM | O=C(c1cnc(NCc2ccc(OC(F)(F)F)cc2)nc1)c1cccc(C(F)(F)F)c1 [Example 58, (2-{[4-(trifluoromethoxy)benzyl]amino}pyrimidin-5-yl)[3-(trifluoromethyl)phenyl]methanone]
15 | – | 89.5 nM | COc1ccc(C(=O)c2cnc(NCc3ccccn3)nc2)cc1 [Example 60, (4-methoxyphenyl) {2-[(pyridin-2-ylmethyl)amino]pyrimidin-5-yl}methanone]
16 | – | 24.9 nM | O=C(c1cnc(NCc2ccc(Cl)cc2F)nc1)c1cccc(C(F)(F)F)c1 [Example 61, {2-[(4-chloro-2-fluorobenzyl)amino]pyrimidin-5-yl}[3-(trifluoromethyl)phenyl]methanone]

Row | IC50 (human vanin-1 [1]) | IC50 (human vanin-1 [2]) | SMILES
17 | 150 nM | > 123 nM | N#Cc1cccc(CNc2ncc(C(=O)c3cccc(C(F)(F)F)c3)cn2)c1 [Example 62, 3-[({5-[3-(trifluoromethyl)benzoyl]pyrimidin-2-yl}amino)methyl] benzonitrile]
18 | – | 569 nM | COc1ccc(CNc2ncc(C(=O)c3ccc(Cl)cc3)cn2)cc1 [Example 63, (4-chlorophenyl){2-[(4-methoxybenzyl)amino]pyrimidin-5-yl}methanone]
19 | 99.2 nM | 74.4 nM | N#Cc1cccc(CNc2ncc(C(=O)c3cccc(C#N)c3)cn2)c1 [Example 64, 3-({[5-(3-cyanobenzoyl)pyrimidin-2-yl]amino}methyl) benzonitrile]
20 | 29.4 nM | 46.8 nM | NC(=O)c1ccc(CNc2ncc(C(=O)c3cccc(C(F)(F)F)c3)cn2)cn1 [Example 69, 5-[({5-[3-(trifluoromethyl)benzoyl]pyrimidin-2-yl}amino)methyl] pyridine-2-carboxamide]
21 | 140 nM | 77.8 nM | NC(=O)c1ccc(CNc2ncc(C(=O)c3ccc(F)c(C(F)(F)F)c3)cn2)cn1 [Example 70, 5-[({5-[4-fluoro-3-(trifluoromethyl)benzoyl]pyrimidin-2-yl}amino)methyl] pyridine-2-carboxamide]
22 | – | 23.8 nM | O=C(c1cnc(NC2(c3cccnc3)CC2)nc1)c1cccc(C(F)(F)F)c1 [Example 71, (2-{[1-(pyridin-3-yl)cyclopropyl]amino}pyrimidin-5-yl)[3-(trifluoromethyl)phenyl]methanone]
23 | – | 736 nM | COc1ccc(C(=O)c2cnc(NCc3ccccc3)nc2)cc1 [Example 74, [2-(benzylamino)pyrimidin-5-yl](4-methoxyphenyl) methanone]
24 | – | 617 nM | COc1ccc(C(=O)c2cnc(NCc3ccc(OC(F)(F)F)cc3)nc2)cc1 [Example 75, (4-methoxyphenyl) (2-{[4-(trifluoromethoxy)benzyl]amino}pyrimidin-5-yl)methanone]
25 | – | 112 nM | N#Cc1ccc(CNc2ncc(C(=O)c3cccc(C(F)(F)F)c3)cn2)cc1 [Example 76, 4-[({5-[3-(trifluoromethyl)benzoyl]pyrimidin-2-yl}amino)methyl] benzonitrile]
26 | – | 998 nM | COc1ccc(C(=O)c2cnc(NCc3cccc(C#N)c3)nc2)cc1 [Example 77, 3-({[5-(4-methoxybenzoyl)pyrimidin-2-yl]amino}methyl) benzonitrile]
27 | > 20000 nM | 687 nM | N#Cc1ccc(C(=O)c2cnc(NCc3ccc(F)cc3)nc2)cc1 [Example 78, 4-({2-[(4-fluorobenzyl)amino]pyrimidin-5-yl}carbonyl) benzonitrile]
28 | 15100 nM | 348 nM | COc1ccc(CNc2ncc(C(=O)c3ccc(C#N)cc3)cn2)cc1 [Example 79, 4-({2-[(4-methoxybenzyl)amino]pyrimidin-5-yl}carbonyl) benzonitrile]
29 | – | 601 nM | O=C(c1cnc(NCc2ccnnc2)nc1)c1cccc(C(F)(F)F)c1 [Example 122, {2-[(pyridazin-4-ylmethyl)amino]pyrimidin-5-yl}[3-(trifluoromethyl)phenyl]methanone]
30 | – | > 2340 nM | COc1ccc(COc2ncc(C(=O)c3cccc(C(F)(F)F)c3)cn2)cc1 [Example 157, {2-[(4-methoxybenzyl)oxy]pyrimidin-5-yl}[3-(trifluoromethyl)phenyl]methanone]
31 | – | > 2890 nM | O=C(c1cnc(OCc2ccc(OC(F)(F)F)cc2)nc1)c1cccc(C(F)(F)F)c1 [Example 158, (2-{[4-(trifluoromethoxy)benzyl]oxy}pyrimidin-5-yl)[3-(trifluoromethyl)phenyl]methanone]
